What was measured:
[1] = Intraperitoneal glucose tolerance test (GTT); format: in vivo, CD-1 mice; details: male CD-1, HFD, cohort BSF
Description: […] The mice were then briefly fasted to determine the response to insulin or glucose. For the intraperitoneal glucose tolerance test, male mice were transferred to new clean cages and fasted for 6 hours prior to GTT. After 5 hours of fasting, the mice were weighed to determine their proper glucose dosage. The appropriate amount of 20% glucose solution was aliquoted for each mouse (2 g/kg). After 6 hours of fasting, the mice had their blood glucose measured via tail vein using a glucometer. This was recorded as the blood glucose at 0-minute timepoint. The mice were then intraperitoneal injected with their aliquoted glucose solution and returned to their cage. Blood glucose was measured via the tail vein 15, 30, 60, 90, and 120 minutes after glucose injection. Upon completion of GTT, the mice were returned to their cages with food and water and were closely monitored to ensure proper recovery.

mHypoE-46 cell line = assay: Gene expression by qRT-PCR in mHypoE-46 hypothalamic cell line; format: cell-based, mouse; set-up: insulin receptor subunit beta (Insrb) expression by qRT-PCR: dose or concentration left out as unconfirmed; details: for effect of PKA inhibition on BAP effect on Npy expression: n=2
Description: (§1) Hypothalamic neurons from embryonic and adult mice were previously immortalized to generate the clonal cell lines mHypoE-46, mHypoE-44, mHypoE-41, mHypoE-38, mHypoA-59, a FAC-sorted POMC/GFP mouse-derived cell line, mHypoA-POMC/GFP-2, and a mixed culture mHypoA-Bmal1-WT/F cell line (6, 13, 14). The mHypoE-46, mHypoE-44, and mHypoA-Bmal1-WT/F lines were cultured in DMEM containing 1000 mg/L glucose supplemented with 5% FBS and 1% pen/strep. The mHypoE-41, mHypoE-38, and mHypoA-59 cell lines were cultured in DMEM containing 4500 mg/L glucose supplemented with 2% FBS and 1% pen/strep. The mHypoA-POMC/GFP-2 line was cultured in DMEM containing 1000 mg/L glucose supplemented with 2% FBS and 1% pen/strep. All cells were maintained in 5% CO2 at 37° C. BAP was initially dissolved in DMSO solvent (vehicle control) to achieve 1000x the intended dose. The BAP solution was then diluted 1:1000 with the growth media used for the cell line. For co-treatment experiments, the vehicle control for ATP, UDP, and PKI was water, and for the H89 PKA inhibitor was DMSO. Neuropeptide gene expression levels were determined by qRT-PCR.
(§2) For cell culture experiments, total RNA was isolated using PureLink RNA isolation kit (Thermofisher Scientific, Burlington, ON, Canada) according to the manufacturer's instruction with on column DNase step (PureLink DNAse kit) or DNase I treatment to remove genomic DNA. For mouse experiments, total RNA was isolated using mirVana PARIS RNA and native protein isolation kit (Thermofisher Scientific). RNA quality and quantity were measured using Nanodrop 2000 and 500-1000 ng of complimentary DNA (cDNA) was synthesized with High Capacity cDNA Reverse Transcription kit (Applied biosystems, Thermofisher Scientific). Quantitative reverse transcription polymerase chain reaction (RT-qPCR) was performed with 12.5 ng of cDNA amplified with Platinum SYBR green qPCR SuperMix-UDG with ROX on an Applied Biosystems Prism 7900HT or PowerTrack Green Master Mix on an Applied Biosystems QuantStudio 5 and gene specific primers as per manufacturer's instructions (Table 1). Data was analyzed using […] and normalized to reference gene, either 60S ribosomal protein L7 (Rpl7) or Histone 3a (His).

mHypoE-41 cell line = assay: Gene expression by qRT-PCR in mHypoE-41 hypothalamic cell line; format: cell-based, mouse; details: 16 hr
Description: as §1, §2

mHypoE-38 cell line = assay: Gene expression by qRT-PCR in mHypoE-38 hypothalamic cell line; format: cell-based, mouse; details: 100 μM BAP, 16 hr
Description: as §1, with “All cells were maintained in 5% CO2 at 37° C. BAP was initially dissolved in DMSO solvent (vehicle control) to achieve 1000x the intended dose. The BAP solution was then diluted 1:1000 with the growth media used for the cell line. For co-treatment experiments, the vehicle control for ATP, UDP, and PKI was water, and for the H89 PKA inhibitor was DMSO.” left out
For cell culture experiments, total RNA was isolated using PureLink RNA isolation kit (Thermofisher Scientific, Burlington, ON, Canada) according to the manufacturer's instruction with on column DNase step (PureLink DNAse kit) or DNase I treatment to remove genomic DNA. […] RNA quality and quantity were measured using Nanodrop 2000 and 500-1000 ng of complimentary DNA (cDNA) was synthesized with High Capacity cDNA Reverse Transcription kit (Applied biosystems, Thermofisher Scientific). […] Data was analyzed using […] and normalized to reference gene, either 60S ribosomal protein L7 (Rpl7) or Histone 3a (His).

[2] = tested on: mHypoA-Bmal1-WT/F cell line; assay: Gene expression by qRT-PCR in mHypoA-Bmal1-WT/F hypothalamic cell line; format: cell-based, mouse; details: 100 μM BAP, 16 hr
Description: as §1
as §2, with “For mouse experiments, total RNA was isolated using mirVana PARIS RNA and native protein isolation kit (Thermofisher Scientific).” left out

[3] = daily oral BAP emulsion, 27 days
[4] = 100 μM BAP, validation of RNAseq (FIG. 42A 4 hr, 42B 16 hr)

What does the source list for `c1ccc(CNc2ncnc3nc[nH]c23)cc1` [BAP, N6-benzylaminopurine]?
glucose uptake in a GTT ([1]; BAP emulsion 14 days): no change in glucose uptake; fasting blood glucose vs HFD without BAP (GTT) [1, 3]: significantly lower; glucose response in GTT [1, 3]: improved glucose response; effect of PKA inhibition on BAP effect on Npy expression (mHypoE-46 cell line; 100 μM BAP + 1 μM H89, 16 hr): unable to block the effects of BAP on Npy expression; effect of PKA inhibition on BAP effect on Npy expression (mHypoE-46 cell line; 100 μM BAP + 10 μM PKI, 16 hr): unable to block the effects of BAP on Npy expression; Npy expression under co-treatment with palmitate (mHypoE-46 cell line; 100 μM BAP + 50 μM palmitate, 16 hr): rescues the palmitate-mediated increase in Npy expression; Npy mRNA under co-treatment with ATP (mHypoE-46 cell line; 100 μM BAP + 100 μM ATP, 16 hr): overcome this induction and supress Npy mRNA levels; Npy mRNA under co-treatment with UDP (mHypoE-46 cell line; 100 μM BAP + 100 μM UDP, 16 hr): still able to supress the gene; Npy mRNA under co-treatment with UTP (mHypoE-46 cell line; 100 μM BAP + 100 μM UTP, 16 hr, n=2 preliminary): still able to supress the gene; PI3K subunit (Pik3r1) gene expression (mHypoE-46 cell line; 100 μM BAP, 4 and 16 h): significantly increased; Nadpk1 expression level (mHypoE-46 cell line; 100 μM BAP, 16 h): significantly decreased; Nadpk2 expression level (mHypoE-46 cell line; 100 μM BAP, 16 h): not changed; Agrp mRNA expression (mHypoE-46 cell line; 100 μM BAP, 16 hr): increased; Npy mRNA expression (mHypoE-46 cell line; 100 μM BAP, 16 hr): supressed; 4e-BP1 (Eif4ebp1) gene expression (mHypoE-46 cell line; [4]): increased; ULK1 (Ulk1) gene expression (mHypoE-46 cell line; [4]): increased; sestrin2 (Sesn2) gene expression (mHypoE-46 cell line; [4]): increased; tuberous sclerosis complex 2 (Tsc2) gene expression (mHypoE-46 cell line; [4]): increased; Npy mRNA expression, time course (mHypoE-46 cell line; 100 μM BAP, all time points tested: 2, 4, 8, 16, and 24 hr): significantly downregulate; insulin receptor subunit beta (Insrb) expression by qRT-PCR (mHypoE-46 cell line; BAP, 16 h): increased; BAP dose at which magnitude of Npy downregulation plateaus (mHypoE-46 cell line; dose curve, 16 hr): 250 µM; lowest BAP concentration significantly decreasing Npy mRNA expression (mHypoE-46 cell line; dose curve, 16 hr): 50 µM; Npy mRNA under co-treatment with ATP (mHypoE-41 cell line; 100 μM BAP + 100 μM ATP): unable to further induce Npy; Agrp mRNA expression (mHypoE-41 cell line; 100 μM BAP): increased; Npy mRNA expression (mHypoE-41 cell line; 100 μM BAP): increased; BAP dose with strongest Npy increase (mHypoE-41 cell line; dose curve, attenuated at 500 μM): 250 µM; Npy expression, dose curve (mHypoE-41 cell line; increasing concentrations of BAP): increases the expression of Npy; Agrp mRNA expression (mHypoE-38 cell line): increased; Npy mRNA expression (mHypoE-38 cell line): no effect; Agrp mRNA expression [2]: increased; Npy mRNA expression [2]: supressed; Pomc expression [2]: significantly induced

Source: patent US20260034135A1, “USE OF N6-BENZYLAMINOPURINE AS AN APPETITE SUPPRESSANT” (THE GOVERNING COUNCIL OF THE UNIVERSITY OF TORONTO, priority 2022, published 2026)
